One assay has as its target T1, GCase polypeptide (Homo sapiens, UniProt P04062).
T1 construct: endogenous in cells; host or cells: human iPS-derived midbrain dopamine neurons (healthy control; PD patient with SNCA triplication, Coriell ND27760)
T1 sequence (P04062 40-536): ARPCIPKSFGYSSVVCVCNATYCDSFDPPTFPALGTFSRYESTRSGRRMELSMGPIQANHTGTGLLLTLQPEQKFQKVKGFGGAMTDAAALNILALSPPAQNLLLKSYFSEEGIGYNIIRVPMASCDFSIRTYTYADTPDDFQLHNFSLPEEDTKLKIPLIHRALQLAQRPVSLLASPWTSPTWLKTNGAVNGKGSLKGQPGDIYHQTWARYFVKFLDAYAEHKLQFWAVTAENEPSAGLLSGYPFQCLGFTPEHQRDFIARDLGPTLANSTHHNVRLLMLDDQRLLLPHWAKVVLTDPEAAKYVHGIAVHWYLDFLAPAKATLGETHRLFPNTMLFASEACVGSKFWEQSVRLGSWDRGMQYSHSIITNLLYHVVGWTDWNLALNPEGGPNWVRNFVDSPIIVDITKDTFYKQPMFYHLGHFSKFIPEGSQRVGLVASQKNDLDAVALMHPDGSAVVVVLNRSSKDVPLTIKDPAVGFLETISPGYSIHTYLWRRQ
The assay can be described thus: GCase polypeptide levels and post-ER forms by western blot in human iPS dopamine neurons. Format: cell-based. To be noted: wild-type neurons from an unaffected control; 100 μM IFG for 5 days followed by 1 day wash-out. As to the method: (§1) In this Example, human dopamine neurons generated from iPS cells of an unaffected control were treated with a pharmacological chaperone activator of GCase polypeptide, isofagomine (IFG). […] Treatment of wild-type neurons with 100 μM IFG for 5 days followed by 1 day wash-out increased the levels of GCase polypeptide (FIGS. 15A and 15B). This increase was likely due to the fact that wild-type GCase polypeptide was occasionally misfolded in the ER and degraded (about 30% of the total made in the ER), and IFG appeared to also stabilize the wild-type misfolded forms.
It was also shown in this Example that treatment with the GCase polypeptide activator increased the levels of total GCase protein and increased the post-ER forms, indicating enhancement of flux to the lysosome (FIG. 19B).
In this Example, the effect of combining the GCase polypeptide pharmacological chaperone IFG with the antioxidant n-acetyl-cysteine (NAC) on GCase polypeptide maturation in PD iPS neurons was tested. Neurons were treated with either IFG, NAC, or IFG and NAC together, and GCase polypeptide maturation was analyzed by western blot.
Most materials for SDS-PAGE were obtained from Invitrogen (NuPAGE system). Protein lysates were boiled in sample buffer (20 mM Tris, 1% (v/v) glycerol, 180 mM β-mercaptoethanol, 0.003% (w/v) bromophenol blue, 2% (w/v) SDS, pH 6.8), resolved on 4%-12% Bis-Tris polyacrylamide precast gels in a MOPS-SDS running buffer, or 4%-12% Tris-Glycine gels. 10% Tris-Glycine gels were utilized for some GCase polypeptide western blot's (FIGS. 13B, 13D, and 13E, and FIGS. 14C and 14F). […] Blots were blocked in Odyssey blocking buffer (Li-Cor biosciences) containing 0.05% Tween, or 5% non-fat dry milk in TBS-T 0.2%, followed by incubation with primary antibodies (see above for dilutions), and detected with anti-mouse or -rabbit IgG conjugated to IRDye 680 or 800 (1:10,000, Li-Cor biosciences). […] Any nonspecific bands detected were not included in densitometric analyses. […]

Assay [1] relates to human dopamine neurons generated from iPS cells. The assay can be described thus: Proteolysis by radioactive pulse-chase in human iPS dopamine neurons. It counts as cell-based. The conditions noted are these: wild-type neurons; 100 μM IFG 5 days, 1 day wash-out. As to the method: as §1
In this Example, it was further determined if the effects discussed above could also be replicated with non-native site binding compounds that can act as allosteric activators of GCase polypeptide, and therefore unlike IFG, would not require a washout to activate GCase polypeptide. […]
Proteolysis of long-lived proteins was determined by radioactive pulse-chase using ^3H-leucine. […] Samples were centrifuged at 20,000×g for 20 min, 4° C., and the radioactivity was measured in 5 ml of scintillation cocktail using a Beckman LS 1701 liquid scintillation counter (Beckman Instruments). Precipitated protein pellets were extracted in 200 μl of Na deoxycholate, 0.1 M NaOH, and radioactivity was determined. Percent proteolysis was calculated as described in detail elsewhere (Kaushik et al. Methods Enzymol. 452: 297, 2009). […]

`OC[C@H]1CNC[C@@H](O)[C@@H]1O` [IFG, isofagomine]: the “levels of GCase polypeptide” value on GCase polypeptide was “increased”. Further, the “Proteolysis rate, fold increase compared to controls” value in assay [1] is on record as 3 fold.

The values are drawn from patent US9845327B2, “Treatment of proteinopathies” (THE GENERAL HOSPITAL CORPORATION, priority 2011, dated 2017).
